Laboratory results reported in patent publication US10881656B2, “HIF inhibitors and use thereof” (The General Hospital Corporation, priority 2008, dated 2021).
pIC50: −log10 of the molar value. Values joined by “and” are separate entries in the source; they are usually repeats but may differ in a detail not shown here. Equal values may be shown once.

Tests used:
[1] = system: HIF-2a; assay: Western blot for HIF-2a protein expression; type: cell-based, human; conditions: A498 and UMRC2 cells
[2] = system: 786-O cells; assay: Global translation (35S loading control, polysome analysis); type: cell-based, human
Experimental: DMSO-, rapamycin- or PGJ2-treated 786-O cells were harvested from 10 cm plates for each polysomal analysis. Confluent cells were harvested and lysed in 300 μL ofRSB [10 mmol/L NaCl, 10 mmol/L Tris-HCl (pH 7.4), 15 mmol/L MgCl2] containing 100 μg/mL heparin, 1.2% Triton X-100, and 0.12% deoxycholate. Nuclei were pelleted for 3 min in a microcentrifuge at 4° C. The 300-μL extract was layered over 11.5 mL of a 15% to 45% (wt/wt) sucrose gradient with a 0.5-mL cushion of 45% sucrose. The gradients were centrifuged at 37,000 rpm for 2.5 h in an SW 41 (Beckman) rotor at 4° C. After centrifugation, the A260 was continuously monitored and recorded across the gradient using a Foxy Jr. Density Gradient fractionation system and UA-6 UV/VIS Detector (ISCO, Inc.).
To determine if PGJ2 decreases translation of the HIF2a message, the inventors evaluated the synthesis rate and stability of the newly synthesized HIF2a by an ^35S-methionine pulse chase experiment on PGJ2 or vehicle only DMSO treated 786-O cells. […] Loading control is 1/1000th of the cell lysate used in the respective immunoprecipitation directly loaded into an SDS-PAGE gel.

[3] = system: IRP2; assay: IRP2 expression in treated cells; type: cell-based, human
Description: However, IRP2 contributes very little—if at all—to the total IRP bound to the HIF2a IRE (Zimmer et al., 2008).

[4] = system: Fli1-GFP fish embryo; assay: Inhibition of vascularization in fish embryo; conditions: 3microM; treated at 20 hpf, imaged 48-50 hpf
[5] = system: HIF-2a (HRE-luciferase, 7H4 cells); assay: HRE-luciferase reporter assay in 786-O derived 7H4 cells; type: cell-based, human
Experimental: The screen for small molecule inhibitors was performed in the Institute for Chemical and Cellular biology, Harvard Medical School. 7SV or 7H4 cells were plated onto 384-well plates. The next day compounds were added robotically to the medium, to a final concentration of approximately 10 μM. 24 hours later, media was aspirated and Passive Lysis Buffer (Promega) and Luciferase Assay Reagent II (Promega) were added. Luciferase activity was measured with an Analyst plate reader (LJL Biosystems). All experiments were performed in duplicate and the identity of lead compounds was confirmed by mass spectroscopy
Luciferase assays were performed using the Promega's Dual-luciferase Assay Reporter System (Promega, E1910) according to the manufacturer's instructions. Counts obtained from transient transfections were normalized for co-transfected Renilla luciferase. Stable clones were normalized to medium only treated wells.
Functionally validated HRE and control SV40 luciferase reporter constructs were stably introduced into VHL-deficient 786-O cells to generate 7H4 and 7SV lines, respectively (see FIG. 8A). These lines were used to screen five commercial small molecule libraries (NCI Diversity Set, Chembridge, Maybridge, CEREP and Peakdale) and the ICCB Diversity-Oriented Synthesis (DOS) Diversity Set 2 (DDS2) and serine-derived peptidomimetic (SDP1) collections, totaling 58,000 compounds.
786-O cells were untreated (M, for medium only), mock-treated (D, for DMSO) or treated with compounds for two days before assaying for normalized luciferase activity. The resulting dose response curves are shown along with the compound structures in FIGS. 1A-1H).
To validate the connectivity map-derived prediction that PGJ2 is involved in HIF signaling, the inventors treated HRE-luciferase expressing 786-O cells (7H4) and SV40-luciferase expressing control cells (7SV) with increasing doses of PGJ2.

CCCCC/C=C/C=C1/C(=O)C=C[C@@H]1C/C=C\CCCC(=O)O [PGJ2, 15-deoxy-Δ^12,14-prostaglandin J2] was tested, and the “HIF2a protein expression in other VHL-deficient renal cell carcinoma lines” value [1] was “decreased HIF2a protein expression”, the “global cellular translation (35S-methionine loading control)” value ([2]; 10 μM) was “does not globally decrease cellular translation” and the “ribosomes actively engaged in translation (polysome analysis)” value ([2]; 24 hours) was “little effect on the number of ribosomes actively engaged in translation”. The IRP2 expression [3] was “minimally increased”, the “Totals: Completed” value [4] was 47 and the “Totals: stalled” value [4] was 39. For the same compound, the “completed of total, per animal” value [4] was 6 of 17 (2×) and 17 of 18 and 9 of 17 (2×), the pIC50 ([5]; 7H4 cells, luciferase measured at 48 hours, read-out: IC50app, HRE-driven luciferase activity) was 5.30 and the “HIF2a activity at various ambient oxygen concentrations” value ([5]; HRE-luciferase 786-O cells, 48 hours) was “has the ability to repress HIF2a activity at a wide range of oxygen concentrations”.
